# In the supplement of paper PMC4862054:
# Experiments:
# Conditions in all cases: incubation time: 72 h
# MDA-MB-468 [1] = assay: normalised response (% of control), CellTox Green; higher = less cell death (100 = DMSO, 0 = benzethonium chloride kill control)
# In short: (§1)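 Each entry is the normalised signal at a single concentration within a series. The series comprised 5 concentrations in 10-fold steps over a compound-specific 10,000-fold range, placed in 384-well plates into which breast cancer cell lines were seeded as 20 µl suspension and incubated 72 h. CellTox Green (485/520 nm) fluorescence and then CellTiter-Glo luminescence were read, with signals normalised per plate to 0.1 % DMSO (100) and a positive kill control (0).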
# CAL-120 [2] = assay: as above
# In short: as §1
# DU-4475 [3] = assay: as above
# In short: as §1
# MDA-MB-231 [4] = assay: as above
# In short: as §1
# CAL-51 [5] = assay: as above
# In short: as §1
# Hs578T [6] = assay: as above
# In short: as §1
# BT-474 [7] = assay: as above
# In short: as §1
# MDA-MB-453 [8] = assay: as above
# In short: as §1
# MFM-223 [9] = assay: as above
# In short: as §1
# HCC1937 [10] = assay: as above
# In short: as §1
# CAL-148 [11] = assay: as above
# In short: as §1
# HCC1143 [12] = assay: as above
# In short: as §1
# MCF-10A [13] = assay: as above
# In short: as §1
# BT-549 [14] = assay: as above
# In short: as §1
# HCC1599 [15] = assay: as above
# In short: as §1
# MDA-MB-436 [16] = assay: as above
# In short: as §1
# CAL-85-1 [17] = assay: as above
# In short: as §1
# HDQ-P1 [18] = assay: as above
# In short: as §1
# MDA-MB-468 [19] = assay: normalised response (% of control), CellTiter-Glo; higher = more viable cells (100 = DMSO, 0 = benzethonium chloride kill control)
# In short: as §1
# CAL-120 [20] = assay: as above
# In short: as §1
# SK-BR-3 = assay: as above
# In short: as §1
# DU-4475 [21] = assay: as above
# In short: as §1
# MDA-MB-231 [22] = assay: as above
# In short: as §1
# CAL-51 [23] = assay: as above
# In short: as §1
# Hs578T [24] = assay: as above
# In short: as §1
# BT-474 [25] = assay: as above
# In short: as §1
# MDA-MB-453 [26] = assay: as above
# In short: as §1
# MFM-223 [27] = assay: as above
# In short: as §1
# HCC1937 [28] = assay: as above
# In short: as §1
# CAL-148 [29] = assay: as above
# In short: as §1
# HCC1143 [30] = assay: as above
# In short: as §1
# MCF-10A [31] = assay: as above
# In short: as §1
# BT-549 [32] = assay: as above
# In short: as §1
# HCC1599 [33] = assay: as above
# In short: as §1
# MDA-MB-436 [34] = assay: as above
# In short: as §1
# CAL-85-1 [35] = assay: as above
# In short: as §1
# HDQ-P1 [36] = assay: as above
# In short: as §1
Compound,normalised response (MDA-MB-468 [1]) [%],normalised response (CAL-120 [2]) [%],normalised response (DU-4475 [3]) [%],normalised response (MDA-MB-231 [4]) [%],normalised response (CAL-51 [5]) [%],normalised response (Hs578T [6]) [%],normalised response (BT-474 [7]) [%],normalised response (MDA-MB-453 [8]) [%],normalised response (MFM-223 [9]) [%],normalised response (HCC1937 [10]) [%],normalised response (CAL-148 [11]) [%],normalised response (HCC1143 [12]) [%],normalised response (MCF-10A [13]) [%],normalised response (BT-549 [14]) [%],normalised response (HCC1599 [15]) [%],normalised response (MDA-MB-436 [16]) [%],normalised response (CAL-85-1 [17]) [%],normalised response (HDQ-P1 [18]) [%],normalised response (MDA-MB-468 [19]) [%],normalised response (CAL-120 [20]) [%],normalised response (SK-BR-3) [%],normalised response (DU-4475 [21]) [%],normalised response (MDA-MB-231 [22]) [%],normalised response (CAL-51 [23]) [%],normalised response (Hs578T [24]) [%],normalised response (BT-474 [25]) [%],normalised response (MDA-MB-453 [26]) [%],normalised response (MFM-223 [27]) [%],normalised response (HCC1937 [28]) [%],normalised response (CAL-148 [29]) [%],normalised response (HCC1143 [30]) [%],normalised response (MCF-10A [31]) [%],normalised response (BT-549 [32]) [%],normalised response (HCC1599 [33]) [%],normalised response (MDA-MB-436 [34]) [%],normalised response (CAL-85-1 [35]) [%],normalised response (HDQ-P1 [36]) [%]
COc1cc(CCc2cc(NC(=O)c3ccc(N4CC(C)NC(C)C4)cc3)n[nH]2)cc(OC)c1 (stereo unspecified) [AZD4547] (10 nM),158,102,98.2,94.2,95,103,95.9,104,92.8,82.4,51.3,91.2,79.9,106,93.9,55.9,99.2,104,98.3,95.8,92.3,88.8,96.4,111,89.8,106,95.7,70.8,94.8,99.5,99.3,90.3,98.4,104,105,103,98.9
CCC/C=C/C=C/C(=O)O[C@H]1/C(=C/C(=O)OC)C[C@H]2C[C@H]([C@@H](C)O)OC(=O)C[C@H](O)C[C@@H]3C[C@H](OC(C)=O)C(C)(C)[C@](O)(C[C@@H]4C/C(=C/C(=O)OC)C[C@H](/C=C/C(C)(C)[C@]1(O)O2)O4)O3 [Bryostatin 1] (1 nM),105,103,106,113,91,94,86.8,94.6,104,123,111,117,98.5,111,111,100,97.7,75.6,99.8,103,66.2,91.6,95.9,58,79.6,92.3,103,104,93,116,102,107,101,99.3,102,95.5,88.6
Cc1nc(Nc2ncc(C(=O)Nc3c(C)cccc3Cl)s2)cc(N2CCN(CCO)CC2)n1 [Dasatinib] (10 nM),107,100,110,84.2,86.6,84.7,102,106,98.9,93.1,93.9,56.7,58.3,111,97.7,98,102,96.7,92.2,93.7,101,99.4,70.6,82,94.3,74.5,99.5,95,90.5,99.2,90.2,71.5,97.2,94.3,97.1,95.7,74.8
C[C@]12O[C@H](C[C@]1(O)CO)n1c3ccccc3c3c4c(c5c6ccccc6n2c5c31)CNC4=O [Lestaurtinib] (10 nM),60,97.4,94.2,97.3,98.4,108,99.3,101,103,103,87.7,50.3,91.2,100,90.6,78.8,96.2,104,78.7,92.2,82.4,98,101,103,90.2,98.8,81.1,97.2,94.3,107,105,83.7,109,96.9,93.8,102,102
c1cc(CN2CCCNCCNCCCNCC2)ccc1CN1CCCNCCNCCCNCC1 [Plerixafor] (100 nM),89.8,93.5,91.7,96.5,59.6,99.3,85.5,91.3,50.4,73.9,94.4,95.1,97.7,95.9,88.9,74.2,92.5,101,97.6,100,84.1,88.1,97.1,67.7,94.8,98.8,83,85.1,96.6,89.8,104,79.7,109,95.3,92,101,103
C[C@]12C=CC(=O)C=C1CC[C@@H]1[C@@H]2[C@@H](O)C[C@@]2(C)[C@H]1CC[C@]2(O)C(=O)CO [Prednisolone] (100 nM),108,102,98.8,134,117,110,101,104,96.1,115,103,118,95.5,97.2,103,89.9,85.8,106,109,87.4,104,106,146,112,113,146,95,110,103,114,102,102,96,105,101,109,89.3
Cn1cc(CNCC2CCN(c3ncc(C(=O)NO)cn3)CC2)c2ccccc21 [Quisinostat] (10 nM),57.7,91.4,97.8,101,126,88.8,93,97.7,103,114,95.8,114,96.7,95.5,104,92.3,77.9,109,91.2,86.2,70.1,83.9,103,99.2,85.7,106,56.9,103,85.2,87.6,75.8,78.8,88,89.8,87.2,72.5,75.4
CNC(=O)c1cc(Oc2ccc(NC(=O)Nc3ccc(Cl)c(C(F)(F)F)c3)cc2)ccn1 [Sorafenib] (10 nM),97.8,96,98.4,108,106,95,99.3,106,101,66.5,103,95.9,66.7,108,91.9,103,102,107,115,112,103,101,105,95.9,98.8,97.8,100,106,95.2,107,102,108,108,108,105,102,107
